Article PMC4336630 (Molecular cell, 2015)
Entries after “also recorded” stand apart in the source; their conditions may differ.

Experiments:
[1] = test system: Nc1nc2c(ncn2[C@@H]2O[C@H](COP(=O)(O)O)[C@@H](O)[C@H]2O)c(=O)[nH]1; assay: purified protein, by the assay type; conditions: 25.0 °C
[2] = target: E. faecalis GMK-1 (Enterococcus faecalis, UniProt Q82ZD5); type: biochemical
[3] = target: T1, E. faecalis GMK-2 (Enterococcus faecalis, UniProt Q831B6); type: biochemical
[4] = target: A. tumefaciens GMK (Agrobacterium tumefaciens, UniProt Q8UGD7); type: biochemical
[5] = target: M. tuberculosis GMK (Mycobacterium tuberculosis, UniProt P9WKE9); type: biochemical
[6] = test system: GMK of Rhodobacter sphaeroides; type: biochemical
[7] = test system: Neisseria meningitidis GMK; type: biochemical
[8] = test system: Klebsiella pneumoniae GMK; type: biochemical
[9] = test system: Pseudomonas syringae GMK; type: biochemical
[10] = test system: Yersinia enterocolitica GMK; type: biochemical
[11] = target: Coxiella burnetii GMK (Coxiella burnetii, UniProt Q83EL7); type: biochemical
[12] = target: T2, E. coli GMK (Escherichia coli, UniProt P60546); type: biochemical
[13] = target: T3, B. subtilis GMK (Bacillus subtilis, UniProt O34328); type: binding
[14] = target: T2, E. coli GMK; type: binding
[15] = test system: Chimeric S. aureus GMKs with E. coli lid domains; type: biochemical
[16] = test system: chimeric E. coli GMKs with S. aureus lid domains; type: biochemical
[17] = target: B. subtilis GMK Y77F (Bacillus subtilis, UniProt O34328, Y77F); type: biochemical
[18] = target: T4, B. anthracis GMK (Bacillus anthracis, UniProt Q81WG7)
[19] = target: T3, B. subtilis GMK
[20] = target: T5, L. monocytogenes GMK (Listeria monocytogenes serovar 1/2a, UniProt Q8Y672)
[21] = target: T6, S. aureus GMK (Staphylococcus aureus, UniProt P99176)
[22] = target: T7, S. mutans GMK (Streptococcus mutans serotype c, UniProt Q8DVK6)
[23] = target: T8, S. meliloti GMK (Sinorhizobium meliloti, UniProt Q92QZ2)
[24] = target: T9, D. radiodurans GMK (Deinococcus radiodurans, UniProt Q9RS38)
[25] = target: T10, T. thermophilus GMK (Thermus thermophilus, UniProt Q5SI18)
[26] = target: T11, C. gilvus GMK (Cellulomonas gilvus, UniProt F8A6C8)
[27] = target: T12, S. coelicolor GMK (Streptomyces coelicolor, UniProt Q9KXS0)
[28] = target: T1, E. faecalis GMK-2; conditions: cited from earlier work
[29] = target: T. thermophilus IMPDH; conditions: cited from earlier work
[30] = target: T4, B. anthracis GMK; assay: biochemical
[31] = target: T3, B. subtilis GMK; assay: biochemical
[32] = target: T5, L. monocytogenes GMK; assay: biochemical
[33] = target: T6, S. aureus GMK; assay: biochemical
[34] = target: T7, S. mutans GMK; assay: biochemical
[35] = target: T8, S. meliloti GMK; assay: biochemical
[36] = target: T9, D. radiodurans GMK; assay: biochemical
[37] = target: T10, T. thermophilus GMK; assay: biochemical
[38] = target: T11, C. gilvus GMK; assay: biochemical
[39] = target: T12, S. coelicolor GMK; assay: biochemical

Molecule: L. monocytogenes GMK (Listeria monocytogenes EGD-e)
- Km [1]: 84.7 ± 14.2 µM
- kcat [1]: 54.9 ± 5.6 s⁻¹

Molecule: Nc1nc2c(ncn2[C@@H]2O[C@H](COP(=O)(O)OP(=O)(O)OP(=O)(O)O)[C@@H](OP(=O)(O)OP(=O)(O)O)[C@H]2O)c(=O)[nH]1 [pppGpp, guanosine pentaphosphate]
- Mode of inhibition [2]: Comp
- Ki [3]: 355 ± 26 µM
- Mode of inhibition [3]: noncompetitively inhibited; also recorded: Noncomp
- Ki [4]: 53.5 ± 8.9 µM
- Mode of inhibition [4]: modestly and competitively inhibited and Comp
- Inhibition of GMK activity (sensitivity) [5]: insensitive
- Inhibition of GMK activity (sensitivity) [6]: resistant
- Inhibition of GMK activity (sensitivity) [7]: completely resistant
- Inhibition of GMK activity (sensitivity) [8]: completely resistant
- Inhibition of GMK activity (sensitivity) [9]: completely resistant
- Inhibition of GMK activity (sensitivity) [10]: completely resistant
- Inhibition of GMK activity (sensitivity) [11]: completely resistant
- Inhibition of GMK activity (sensitivity) [12]: completely resistant
- Complex formation (binding) by ITC [13]: detected
- Binding by ITC [14]: not observed
- Inhibition of GMK activity (sensitivity) [15]: more resistant
- Inhibition of GMK activity (sensitivity) [16]: still resistant
- Ki of the variant (in words) [17]: increased Ki to a level comparable to that of B. anthracis GMK
- Mode of inhibition [18]: Comp
- Mode of inhibition [19]: Comp
- Mode of inhibition [20]: Comp
- Mode of inhibition [21]: competitively inhibits and Comp
- Mode of inhibition [22]: Comp
- Mode of inhibition [23]: modestly and competitively inhibited and Comp
- Mode of inhibition [24]: strongly and competitively inhibited and Comp
- Mode of inhibition [25]: strongly and competitively inhibited and Comp
- Mode of inhibition [26]: competitively inhibited and Comp
- Mode of inhibition [27]: competitively inhibited and Comp
- IC50 [28]: ~460 µM
- Ki [29]: ~11 µM
- IC50 [30]: ~120 µM
- Ki [30]: 42.5 ± 7.3 µM
- IC50 [31]: ~16 µM
- IC50 [32]: 9 to 24 µM
- Ki [32]: 12 ± 1.1 µM
- IC50 [33]: 9 to 24 µM
- Ki [33]: 7 µM
- IC50 [34]: 9 to 24 µM
- Ki [34]: 16.6 ± 2.4 µM
- Ki [35]: 81.6 ± 11.8 µM
- Ki [36]: 1.6 ± 0.4 µM
- Ki [37]: 2.9 ± 0.5 µM
- Ki [38]: 1.7 ± 0.5 µM
- Ki [39]: 61.5 ± 9.6 µM

Molecule: T. thermophilus GMK (Thermus thermophilus HB8)
- Km [1]: 17.5 ± 4.1 µM
- kcat [1]: 4.8 ± 0.4 s⁻¹

Molecule: S. coelicolor GMK (Streptomyces coelicolor A3(2))
- Km [1]: 29.7 ± 3.4 µM
- kcat [1]: 25.5 ± 0.7 s⁻¹

Molecule: S. mutans GMK (Streptococcus mutans UA159)
- Km [1]: 147.4 ± 68.6 µM
- kcat [1]: 68.9 ± 24.8 s⁻¹

Molecule: D. radiodurans GMK (Deinococcus radiodurans R1 = ATCC 13939 = DSM 20539)
- Km [1]: 17.8 ± 5.4 µM
- kcat [1]: 44.5 ± 4.4 s⁻¹

Molecule: S. aureus GMK (Staphylococcus aureus subsp. aureus N315)
- Km [1]: 35.1 ± 7.1 µM
- kcat [1]: 72.9 ± 7.2 s⁻¹

Molecule: S. meliloti GMK (Sinorhizobium meliloti 1021)
- Km [1]: 14.1 ± 1.3 µM
- kcat [1]: 19.5 ± 0.3 s⁻¹

Molecule: Nc1nc2c(ncn2[C@@H]2O[C@H](COP(=O)(O)OP(=O)(O)O)[C@@H](OP(=O)(O)OP(=O)(O)O)[C@H]2O)c(=O)[nH]1 [ppGpp, guanosine tetraphosphate]
- Inhibition of GMK activity (sensitivity) [12]: resistant
- Mode of inhibition [21]: competitively inhibits
- Ki [33]: 8.2 µM

Molecule: B. anthracis GMK (Bacillus anthracis)
- Km [1]: 78.1 ± 39.7 µM
- kcat [1]: 57.6 ± 21.9 s⁻¹

Molecule: C. gilvus GMK (Cellulomonas gilvus ATCC 13127)
- Km [1]: 22.5 ± 7.3 µM
- kcat [1]: 25 ± 2.7 s⁻¹

Molecule: B. subtilis GMK (Bacillus subtilis subsp. subtilis str. 168)
- Km [1]: 24.6 ± 3.4 µM
- kcat [1]: 23 ± 1 s⁻¹
